In patent US7825256B2, “Inducible nitric oxide synthase dimerization inhibitors” (Kalypsys, Inc., priority 2004, dated 2010) one finds EC50 data, which are given here for 25 molecules.

In this test the target is T1, hiNOS (Homo sapiens, UniProt P35228).
T1 construct: expressed in transfected cells; host or cells: HEK293
In words: DAN assay, hiNOS expressed in transiently transfected HEK293 cells. As to conditions: HEK293 cells transiently transfected with hiNOS. Type of test: cell-based. The text has this: The source of nitric oxide synthase (NOS) enzyme can be generated in several ways including induction of endogenous iNOS using cytokines and/or lipopolysaccharide (LPS) in various cell types known in the art. Alternatively, the gene encoding the enzyme can be cloned and the enzyme can be generated in cells via heterologous expression from a transient or stable expression plasmid with suitable features for protein expression as are known in the art. Enzymatic activity (nitric oxide production) is calcium independent for iNOS, while the constitutive NOS isoforms, nNOS and eNOS, become active with the addition of various cofactors added to cellular media or extract as are well known in the art. Enzymes specified in Table 1 were expressed in HEK293 cells transiently transfected with the indicated NOS isoform.
A major metabolic pathway for nitric oxide is to nitrate and nitrite, which are stable metabolites within tissue culture, tissue, plasma, and urine (S Moncada, A Higgs, N Eng J Med 329, 2002 (1993)).
The level of nitrate or nitrite in the specimen can be quantified by any method known in the art which provides adequate sensitivity and reproducibility. A variety of protocols have also been described for detecting and quantifying nitrite and nitrate levels in biological fluids by ion chromatography (e.g., S A Everett et al., J. Chromatogr. 706, 437 (1995); J M Monaghan et al., J. Chromatogr. 770, 143 (1997)), high-performance liquid chromatography (e.g., M Kelm et al., Cardiovasc. Res. 41, 765 (1999)), and capillary electrophoresis (M A Friedberg et al., J. Chromatogr. 781, 491 (1997)). For example, 2,3-diaminonaphthalene reacts with the nitrosonium cation that forms spontaneously from NO to form the fluorescent product […]. Using 2,3-diaminonaphthalene (“DAN”), researchers have developed a rapid, quantitative fluorometric assay that can detect from 10 nM to 10 μM nitrite and is compatible with a multi-well microplate format. […] DAN reacts with nitrite ion and gives fluorescent […] (M C Carré et al., Analysis 27, 835-838 (1999)). Table 1 provides the test results of various compounds of the subject invention using the DAN assay.
A specimen can be processed prior to determination of nitrate or nitrite as required by the quantification method, or in order to improve the results, or for the convenience of the investigator. For example, processing can involve centrifuging, filtering, or homogenizing the sample. If the sample is whole blood, the blood can be centrifuged to remove cells and the nitrate or nitrite assay performed on the plasma or serum fraction. If the sample is tissue, the tissue can be dispersed or homogenized by any method known in the art prior to determination of nitrate or nitrite. It may be preferable to remove cells and other debris by centrifugation or another method and to determine the nitrate or nitrite level using only the fluid portion of the sample, or the extracellular fluid fraction of the sample. The sample can also be preserved for later determination, for example by freezing of urine or plasma samples. When appropriate, additives may be introduced into the specimen to preserve or improve its characteristics for use in the nitrate or nitrite assay.
The “level” of nitrate, nitrite, or other NO-related product usually refers to the concentration (in moles per liter, micromoles per liter, or other suitable units) of nitrate or nitrite in the specimen, or in the fluid portion of the specimen. However, other units of measure can also be used to express the level of nitrate or nitrite. For example, an absolute amount (in micrograms, milligrams, nanomoles, moles, or other suitable units) can be used, particularly if the amount refers back to a constant amount (e.g., grams, kilograms, milliliters, liters, or other suitable units) of the specimens under consideration. A number of commercially available kits can be used.
What is called EC50 is the concentration needed to bring the measured effect to its halfway point. A low value points to higher potency in that assay. In turn, `CNNC(=N)CN(CCCNCc1ccc2c(c1)OCO2)c1nc(-n2ccnc2)ns1` [Example 62, 2-[{3-[(Benzo[1,3]dioxol-5-ylmethyl)-amino]-propyl}-(3-imidazol-1-yl-[1,2,4]thiadiazol-5-yl)-amino]-acetamidine N′-methyl-hydrazide] gave an EC50 below 1 µM.

As to `c1cncc(CN(CCCNCc2ccc3c(c2)OCO3)c2nc(-n3ccnc3)ns2)c1` [Example 102, N′-Benzo[1,3]dioxol-5-ylmethyl-N-(3-imidazol-1-yl-[1,2,4]thiadiazol-5-yl)-N-pyridin-3-ylmethyl-propane-1,3-diamine], the EC50 is below 1 µM. Then `COc1ccc(CN2CCCC2C(=O)NCc2cc(C)nc(-n3ccnc3)n2)cc1O` (stereo not shown) [Example 114, 1-(3-Hydroxy-4-methoxy-benzyl)-pyrrolidine-2-carboxylic acid (2-imidazol-1-yl-6-methyl-pyrimidin-4-ylmethyl)-amide], with above 50 µM. Then `CCOC(=O)CN(CCCN(C)Cc1ccc2c(c1)OCO2)c1nc(-n2ccnc2)ns1` [Example 58, [[3-(Benzo[1,3]dioxol-5-ylmethyl-methyl-amino)-propyl]-(3-imidazol-1-yl-[1,2,4]thiadiazol-5-yl)-amino]-acetic acid ethyl ester], with below 1 µM.

In turn, `O=C(NCCc1ccc2c(c1)OCO2)[C@H]1Cc2ccccc2CN1c1nc(-n2ccnc2)ns1` [Example 129, (R)-2-(3-Imidazol-1-yl-[1,2,4]thiadiazol-5-yl)-1,2,3,4-tetrahydro-isoquinoline-3-carboxylic acid (2-benzo[1,3]dioxol-5-yl-ethyl)-amide] yielded an EC50 below 1 µM. Then `c1cn(-c2nsc(N(CCCNCc3ccc4c(c3)OCO4)Cc3ccc4occc4c3)n2)cn1` [Example 101, N′-Benzo[1,3]dioxol-5-ylmethyl-N-benzofuran-5-ylmethyl-N-(3-imidazol-1-yl-[1,2,4]thiadiazol-5-yl)-propane-1,3-diamine], with below 1 µM.

Molecule `CCOC(=O)C(NC(=O)CNCc1ccc2c(c1)OCO2)c1cc(C)nc(-n2ccnc2)n1` (stereo not shown) [Example 41, {2-[(Benzo[1,3]dioxol-5-ylmethyl)-amino]-acetylamino}-(2-imidazol-1-yl-6-methyl-pyrimidin-4-yl)-acetic acid ethyl ester] gave an EC50 below 1 µM. Then `CCOC(=O)c1csc(C2CCN(CCNCc3ccc4c(c3)OCO4)C2c2cc(C)nc(-n3ccnc3)n2)n1` (stereo not shown) [Example 141, 2-[1-{2-[(Benzo[1,3]dioxol-5-ylmethyl)-amino]-ethyl}-2-(2-imidazol-1-yl-6-methyl-pyrimidin-4-yl)-pyrrolidin-3-yl]-thiazole-4-carboxylic acid ethyl ester], with below 1 µM.

`Cc1cc(C2CCCN2CCNCc2ccc3c(c2)OCO3)nc(-n2ccnc2)n1` (single isomer, unassigned) [Example 132, Benzo[1,3]dioxol-5-ylmethyl-{2-[2-(2-imidazol-1-yl-6-methyl-pyrimidin-4-yl)-pyrrolidin-1-yl]-ethyl}-amine] displayed an EC50 below 1 µM.

`CCOC(=O)CN(Cc1cc(C)nc(-n2ccnc2)n1)C(=O)NCCc1ccc2c(c1)OCO2` [Example 69, [3-(2-Benzo[1,3]dioxol-5-yl-ethyl)-1-(2-imidazol-1-yl-6-methyl-pyrimidin-4-ylmethyl)-ureido]-acetic acid ethyl ester] came in with an EC50 below 1 µM. Then `CC(=O)Oc1ccc(CN(CCCN(C)c2nc(-n3ccnc3)ns2)Cc2ccc(OC(C)=O)cc2)cc1` [Example 35, Acetic acid 4-[((4-acetoxy-benzyl)-{3-[(3-imidazol-1-yl-[1,2,4]thiadiazol-5-yl)-methyl-amino]-propyl}-amino)-methyl]-phenyl ester], with below 1 µM; and `COc1ccc(CNCCCN(C)c2nc(-n3ccnc3)ns2)cc1` [Example 8, N-(3-Imidazol-1-yl-[1,2,4]thiadiazol-5-yl)-N′-(4-methoxy-benzyl)-N-methyl-propane-1,3-diamine], with below 1 µM; and `Oc1ccc(CN(CCCNCc2ccc3c(c2)OCO3)c2nc(-n3ccnc3)ns2)cc1` [Example 103, 4-{[{3-[(Benzo[1,3]dioxol-5-ylmethyl)-amino]-propyl}-(3-imidazol-1-yl-[1,2,4]thiadiazol-5-yl)-amino]-methyl}-phenol], with below 1 µM. Then `CN(C)C(=O)CN(CCCNCc1ccc2c(c1)OCO2)c1nc(-n2ccnc2)ns1` [Example 57, 2-[{3-[(Benzo[1,3]dioxol-5-ylmethyl)-amino]-propyl}-(3-imidazol-1-yl-[1,2,4]thiadiazol-5-yl)-amino]-N,N-dimethyl-acetamide], with below 1 µM; and `CNC(=O)C1CCC(C(=O)NCCc2ccc3c(c2)OCO3)N1c1nc(-n2ccnc2)ns1` (stereo not shown) [Example 96, 1-(3-Imidazol-1-yl-[1,2,4]thiadiazol-5-yl)-pyrrolidine-2,5-dicarboxylic acid 2-[(2-benzo[1,3]dioxol-5-yl-ethyl)-amide] 5-methylamide], with below 50 µM. For `CN(CCCN(C)c1nc(-n2ccnc2)ns1)CCc1ccc2c(c1)OCO2` [Example 88, N-(2-Benzo[1,3]dioxol-5-yl-ethyl)-N′-(3-imidazol-1-yl-[1,2,4]thiadiazol-5-yl)-N,N′-dimethyl-propane-1,3-diamine], the EC50 was below 1 µM.

Take `c1cn(-c2nsc(N(CCCNCc3ccc4c(c3)OCO4)Cc3nnn[nH]3)n2)cn1` [Example 61, N′-Benzo[1,3]dioxol-5-ylmethyl-N-(3-imidazol-1-yl-[1,2,4]thiadiazol-5-yl)-N-(1H-tetrazol-5-ylmethyl)-propane-1,3-diamine]: the EC50 is below 1 µM.

For the molecule `Cc1cc(CNC(=O)C2CCCN2Cc2ccc3c(c2)OCO3)nc(-n2ccnc2)n1` (stereo not shown) [Example 116, 1-Benzo[1,3]dioxol-5-ylmethyl-pyrrolidine-2-carboxylic acid (2-imidazol-1-yl-6-methyl-pyrimidin-4-ylmethyl)-amide], the EC50 was above 50 µM. Then `COc1ccc(CNCCCN(C)c2nc(-n3ccnc3)ns2)cc1OC` [Example 22, N′-(3,4-Dimethoxy-benzyl)-N-(3-imidazol-1-yl-[1,2,4]thiadiazol-5-yl)-N-methyl-propane-1,3-diamine], with above 50 µM; and `CN(CCCNCc1ccncc1)c1nc(-n2ccnc2)ns1` [Example 21, N-(3-Imidazol-1-yl-[1,2,4]thiadiazol-5-yl)-N-methyl-N′-pyridin-4-ylmethyl-propane-1,3-diamine], with above 50 µM; and `Cc1cc(C(C)(C)CNC(=O)CCc2ccc3c(c2)OCO3)nc(-n2ccnc2)n1` [Example 143, 3-Benzo[1,3]dioxol-5-yl-N-[2-(2-imidazol-1-yl-6-methyl-pyrimidin-4-yl)-2-methyl-propyl]-propionamide], with below 1 µM. In turn, `CN(CCNCc1ccc2c(c1)OCO2)c1nc(-n2ccnc2)ns1` [Example 47, N′-Benzo[1,3]dioxol-5-ylmethyl-N-(3-imidazol-1-yl-[1,2,4]thiadiazol-5-yl)-N-methyl-ethane-1,2-diamine] yielded an EC50 below 1 µM. Turning to `CN(CCCN(Cc1ccc2c(c1)OCO2)C(=O)OC(C)(C)C)c1nc(-n2cnc(I)c2)ns1` [Example 80], the EC50 was above 50 µM. Then `Cc1cc(C(C)NCCNCc2ccc3c(c2)OCCO3)nc(-n2ccnc2)n1` (stereo not shown) [Example 45, N-(2,3-Dihydro-benzo[1,4]dioxin-6-ylmethyl)-N′-[1-(2-imidazol-1-yl-6-methyl-pyrimidin-4-yl)-ethyl]-ethane-1,2-diamine], with below 1 µM.

In turn, `Cc1cc(C(C)NCCN(C)Cc2ccc3c(c2)OCO3)nc(-n2ccnc2)n1` (single isomer, unassigned) [Example 130, N-Benzo[1,3]dioxol-5-ylmethyl-N′-[1-(2-imidazol-1-yl-6-methyl-pyrimidin-4-yl)-ethyl]-N-methyl-ethane-1,2-diamine] gave an EC50 below 1 µM.
